Source: paper PMC3694096, “Development of Novel In Vivo Chemical Probes to Address CNS Protein Kinase Involvement in Synaptic Dysfunction” (PLoS ONE, 2013)
Read-outs that look alike come from different tables or passages of the source.

Assays:
NLK = target: T1, NLK (Homo sapiens, UniProt Q9UBE8); assay: Kinetic analysis, Ki; assay type: biochemical; set-up: purchased Millipore
T1 sequence (Q9UBE8 1-527): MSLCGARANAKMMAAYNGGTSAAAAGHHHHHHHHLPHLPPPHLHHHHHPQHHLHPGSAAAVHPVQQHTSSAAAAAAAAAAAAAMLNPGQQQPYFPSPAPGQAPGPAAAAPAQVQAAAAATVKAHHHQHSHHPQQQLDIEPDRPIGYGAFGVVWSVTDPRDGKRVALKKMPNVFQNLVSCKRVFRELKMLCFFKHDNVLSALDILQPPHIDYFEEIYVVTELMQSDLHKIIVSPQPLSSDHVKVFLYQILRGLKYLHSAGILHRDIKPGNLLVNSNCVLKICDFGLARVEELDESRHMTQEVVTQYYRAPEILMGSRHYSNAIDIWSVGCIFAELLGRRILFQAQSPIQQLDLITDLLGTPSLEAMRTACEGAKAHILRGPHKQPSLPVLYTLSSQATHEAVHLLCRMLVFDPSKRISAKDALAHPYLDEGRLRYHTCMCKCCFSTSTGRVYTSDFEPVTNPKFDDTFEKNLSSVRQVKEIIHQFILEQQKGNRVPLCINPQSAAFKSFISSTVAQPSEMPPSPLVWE

SAPK2b (SAPK=p38MAPK) = target: T2, SAPK2b (SAPK=p38MAPK) (Homo sapiens, UniProt Q15759); assay: Kinome profiler screen; assay type: biochemical; conditions: at 20,000 nM inhibitor; kinase activity remaining
T2 construct: purchased Millipore

[1] = Acid dissociation constant (pKa); assay type: physicochemical; conditions: water with methanol co-solvent, ionic strength 0.15 M KCl, 22±2°C
SAPK3 (SAPK=p38MAPK) = target: T3, SAPK3 (SAPK=p38MAPK) (Homo sapiens, UniProt P53778); assay: Kinome profiler screen; assay type: biochemical; conditions: at 20,000 nM inhibitor; kinase activity remaining
T3 construct: purchased Millipore KinaseProfiler

PI3 Kinase (p110α/p85α) = target: T4, PI3 Kinase (p110α/p85α) (Homo sapiens, UniProt P42336); assay: Kinome profiler screen; assay type: biochemical; conditions: at 20,000 nM inhibitor; kinase activity remaining
T4 construct: purchased Millipore KinaseProfiler

SAPK4 (SAPK=p38MAPK) = target: T5, SAPK4 (SAPK=p38MAPK) (Homo sapiens, UniProt O15264); assay: Kinome profiler screen; assay type: biochemical; conditions: at 20,000 nM inhibitor; kinase activity remaining
T5 construct: purchased Millipore KinaseProfiler

JNK2α2 = JNK2α2 (Homo sapiens, UniProt P45984); assay: biochemical
[2] = system: PI3 Kinase (p110α (H1047R)/p85α); assay: Kinome profiler screen; assay type: biochemical; conditions: at 20,000 nM inhibitor; kinase activity remaining
[3] = system: phospho-MK-2 (p38αMAPK substrate) in BV-2 cells; assay: LPS-induced phosphorylation of MK-2 in BV-2 cells; assay type: cell-based, murine; conditions: LPS-stimulated BV-2 cells, 60 min
Aurora-C = target: T6, Aurora-C (Homo sapiens, UniProt Q9UQB9); assay: Kinome profiler screen; assay type: biochemical; conditions: at 20,000 nM inhibitor; kinase activity remaining
T6 construct: purchased Millipore KinaseProfiler

panel of 158 GPCRs = assay: Functional GPCR agonist and antagonist screen (calcium flux FLIPR); assay type: cell-based; conditions: outcome in words
[4] = target: T7, PI3 Kinase (p110α (E542K)/p85α) (Homo sapiens, UniProt P42336, E542K); assay: Kinome profiler screen; assay type: biochemical; conditions: at 20,000 nM inhibitor; kinase activity remaining
T7 construct: purchased Millipore KinaseProfiler

Blk = target: T8, Blk (Homo sapiens, UniProt P51451); assay: Kinome profiler screen; assay type: biochemical; conditions: at 20,000 nM inhibitor; kinase activity remaining
T8 construct: purchased Millipore KinaseProfiler

[5] = system: primary microglia from wild-type (WT) mice; assay: LPS-induced IL-1β in primary microglia, wild-type; assay type: cell-based, C57Bl/6 mice; conditions: LPS 3 ng/ml, 24 hrs
[6] = target: T9, PI3 Kinase (p110α (H1047R)/p85α) (Homo sapiens, UniProt P42336, H1047R); assay: Kinome profiler screen; assay type: biochemical; conditions: at 20,000 nM inhibitor; kinase activity remaining
T9 construct: purchased Millipore KinaseProfiler

MLCK = assay: Kinome profiler screen; assay type: biochemical; conditions: at 20,000 nM inhibitor; kinase activity remaining
[7] = target: T10, PI3 Kinase (p110α (E545K)/p85α) (Homo sapiens, UniProt P42336, E545K); assay: Kinome profiler screen; assay type: biochemical; conditions: at 20,000 nM inhibitor; kinase activity remaining
T10 construct: purchased Millipore KinaseProfiler

PI3 kinase (p110α/p65α) = target: T11, PI3 kinase (p110α/p65α) (Homo sapiens, UniProt P42336); assay: Kinome profiler screen; assay type: biochemical; conditions: at 20,000 nM inhibitor; kinase activity remaining
T11 construct: purchased Millipore KinaseProfiler

JNK1α1 = JNK1α1 (Homo sapiens, UniProt P45983); assay: biochemical
Chain of JNK1α1 (P45983 1-384 isoform P45983-2): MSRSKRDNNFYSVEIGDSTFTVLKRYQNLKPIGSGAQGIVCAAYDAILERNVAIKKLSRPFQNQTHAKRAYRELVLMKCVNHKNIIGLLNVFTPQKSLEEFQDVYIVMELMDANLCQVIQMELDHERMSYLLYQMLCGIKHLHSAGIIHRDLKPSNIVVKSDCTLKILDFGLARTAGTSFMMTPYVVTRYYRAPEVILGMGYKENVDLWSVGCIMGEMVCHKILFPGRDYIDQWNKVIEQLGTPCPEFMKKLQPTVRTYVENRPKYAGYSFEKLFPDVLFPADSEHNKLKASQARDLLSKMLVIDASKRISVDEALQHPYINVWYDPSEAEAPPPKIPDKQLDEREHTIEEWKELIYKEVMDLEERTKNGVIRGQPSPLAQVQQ

T6 sequence (Q9UQB9 whole entry): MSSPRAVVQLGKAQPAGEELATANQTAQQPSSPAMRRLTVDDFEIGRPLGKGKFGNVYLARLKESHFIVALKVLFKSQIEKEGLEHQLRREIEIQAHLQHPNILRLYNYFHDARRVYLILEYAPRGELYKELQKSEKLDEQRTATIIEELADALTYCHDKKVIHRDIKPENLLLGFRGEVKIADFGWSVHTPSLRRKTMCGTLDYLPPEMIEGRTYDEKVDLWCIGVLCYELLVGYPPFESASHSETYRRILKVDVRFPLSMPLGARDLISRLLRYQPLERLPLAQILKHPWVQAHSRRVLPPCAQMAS
T9 sequence (P42336 whole entry H1047R): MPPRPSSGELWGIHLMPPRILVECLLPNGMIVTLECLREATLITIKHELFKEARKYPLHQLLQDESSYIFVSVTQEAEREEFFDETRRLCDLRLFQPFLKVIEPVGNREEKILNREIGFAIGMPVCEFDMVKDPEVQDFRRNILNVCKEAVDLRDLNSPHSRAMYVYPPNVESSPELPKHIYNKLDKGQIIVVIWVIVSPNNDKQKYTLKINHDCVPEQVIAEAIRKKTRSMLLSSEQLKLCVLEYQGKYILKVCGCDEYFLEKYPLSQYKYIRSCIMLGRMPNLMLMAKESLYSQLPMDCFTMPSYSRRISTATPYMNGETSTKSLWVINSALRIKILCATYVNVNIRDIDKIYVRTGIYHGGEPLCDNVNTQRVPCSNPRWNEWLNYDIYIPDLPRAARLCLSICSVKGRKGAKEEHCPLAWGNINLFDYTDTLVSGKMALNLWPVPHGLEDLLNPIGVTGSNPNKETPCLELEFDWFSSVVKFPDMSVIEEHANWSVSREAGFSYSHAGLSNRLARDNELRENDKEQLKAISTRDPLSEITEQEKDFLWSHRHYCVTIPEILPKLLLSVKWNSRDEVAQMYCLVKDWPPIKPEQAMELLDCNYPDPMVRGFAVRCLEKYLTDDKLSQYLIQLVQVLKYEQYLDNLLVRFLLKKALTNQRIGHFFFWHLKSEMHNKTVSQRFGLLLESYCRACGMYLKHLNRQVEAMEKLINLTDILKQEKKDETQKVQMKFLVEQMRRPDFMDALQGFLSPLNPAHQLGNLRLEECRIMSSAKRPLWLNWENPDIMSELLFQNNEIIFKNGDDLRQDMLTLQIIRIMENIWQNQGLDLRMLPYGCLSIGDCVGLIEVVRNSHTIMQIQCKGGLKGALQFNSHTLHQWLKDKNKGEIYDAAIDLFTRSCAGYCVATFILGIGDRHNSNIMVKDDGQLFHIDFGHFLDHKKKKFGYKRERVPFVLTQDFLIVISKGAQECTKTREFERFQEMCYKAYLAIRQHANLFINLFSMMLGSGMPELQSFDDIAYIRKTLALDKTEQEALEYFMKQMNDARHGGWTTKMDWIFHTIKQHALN
T9 sequence (P27986 whole entry partner): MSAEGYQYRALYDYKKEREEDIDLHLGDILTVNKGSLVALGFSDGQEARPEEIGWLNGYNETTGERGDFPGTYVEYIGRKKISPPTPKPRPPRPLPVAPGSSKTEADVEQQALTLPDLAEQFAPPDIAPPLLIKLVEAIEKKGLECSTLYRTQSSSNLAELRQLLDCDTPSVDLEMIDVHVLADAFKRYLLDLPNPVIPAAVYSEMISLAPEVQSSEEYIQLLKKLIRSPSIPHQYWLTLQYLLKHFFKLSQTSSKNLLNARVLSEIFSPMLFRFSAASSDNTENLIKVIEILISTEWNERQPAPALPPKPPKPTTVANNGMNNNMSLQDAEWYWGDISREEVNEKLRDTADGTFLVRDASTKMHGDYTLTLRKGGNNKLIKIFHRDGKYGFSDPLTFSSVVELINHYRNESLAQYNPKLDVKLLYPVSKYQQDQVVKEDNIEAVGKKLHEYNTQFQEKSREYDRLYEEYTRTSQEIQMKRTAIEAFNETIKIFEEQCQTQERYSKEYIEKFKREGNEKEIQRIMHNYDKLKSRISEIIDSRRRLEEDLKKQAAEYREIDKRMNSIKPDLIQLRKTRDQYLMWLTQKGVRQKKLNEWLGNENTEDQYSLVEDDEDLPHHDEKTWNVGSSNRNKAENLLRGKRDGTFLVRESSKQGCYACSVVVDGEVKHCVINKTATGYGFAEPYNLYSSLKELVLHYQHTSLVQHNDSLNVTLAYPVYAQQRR
T5 sequence (O15264 whole entry): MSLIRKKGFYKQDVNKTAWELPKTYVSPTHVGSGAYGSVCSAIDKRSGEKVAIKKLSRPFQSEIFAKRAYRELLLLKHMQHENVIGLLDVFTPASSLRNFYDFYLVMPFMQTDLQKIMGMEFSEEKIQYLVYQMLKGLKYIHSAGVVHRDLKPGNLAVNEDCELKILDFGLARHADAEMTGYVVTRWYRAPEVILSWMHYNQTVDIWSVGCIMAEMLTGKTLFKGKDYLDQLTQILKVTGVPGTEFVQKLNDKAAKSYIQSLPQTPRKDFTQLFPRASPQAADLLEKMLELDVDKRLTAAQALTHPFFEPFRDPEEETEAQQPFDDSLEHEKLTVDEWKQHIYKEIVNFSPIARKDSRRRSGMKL
Chain of JNK2α2 (P45984 whole entry): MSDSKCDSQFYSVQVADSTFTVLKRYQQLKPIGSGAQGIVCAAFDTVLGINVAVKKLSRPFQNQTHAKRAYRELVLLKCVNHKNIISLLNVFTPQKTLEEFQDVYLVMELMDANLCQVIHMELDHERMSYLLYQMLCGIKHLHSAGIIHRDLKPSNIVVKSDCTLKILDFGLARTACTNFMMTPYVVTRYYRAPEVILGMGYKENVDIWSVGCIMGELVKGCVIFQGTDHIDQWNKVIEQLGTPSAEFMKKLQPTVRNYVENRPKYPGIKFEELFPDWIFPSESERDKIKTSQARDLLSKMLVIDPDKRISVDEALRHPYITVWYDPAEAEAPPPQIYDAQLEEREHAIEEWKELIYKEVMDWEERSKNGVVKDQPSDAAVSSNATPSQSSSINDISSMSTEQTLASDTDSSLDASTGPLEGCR
T3 sequence (P53778 whole entry): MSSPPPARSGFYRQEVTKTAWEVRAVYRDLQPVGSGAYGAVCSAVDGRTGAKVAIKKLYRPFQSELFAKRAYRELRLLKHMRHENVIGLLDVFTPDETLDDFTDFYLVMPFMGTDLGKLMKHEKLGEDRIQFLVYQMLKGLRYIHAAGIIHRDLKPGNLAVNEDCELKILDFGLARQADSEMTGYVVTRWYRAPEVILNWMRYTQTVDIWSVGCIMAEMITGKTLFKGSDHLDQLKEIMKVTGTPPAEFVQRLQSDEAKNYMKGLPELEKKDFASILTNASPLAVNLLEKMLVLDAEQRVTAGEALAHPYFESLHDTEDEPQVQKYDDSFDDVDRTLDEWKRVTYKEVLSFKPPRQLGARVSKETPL
T7 sequence (P42336 whole entry E542K): as the sequence (P42336 whole entry H1047R) above, with E542K, R1047H counted along it
T7 sequence (P27986 whole entry partner): as the sequence (P27986 whole entry partner) above
T8 sequence (P51451 whole entry): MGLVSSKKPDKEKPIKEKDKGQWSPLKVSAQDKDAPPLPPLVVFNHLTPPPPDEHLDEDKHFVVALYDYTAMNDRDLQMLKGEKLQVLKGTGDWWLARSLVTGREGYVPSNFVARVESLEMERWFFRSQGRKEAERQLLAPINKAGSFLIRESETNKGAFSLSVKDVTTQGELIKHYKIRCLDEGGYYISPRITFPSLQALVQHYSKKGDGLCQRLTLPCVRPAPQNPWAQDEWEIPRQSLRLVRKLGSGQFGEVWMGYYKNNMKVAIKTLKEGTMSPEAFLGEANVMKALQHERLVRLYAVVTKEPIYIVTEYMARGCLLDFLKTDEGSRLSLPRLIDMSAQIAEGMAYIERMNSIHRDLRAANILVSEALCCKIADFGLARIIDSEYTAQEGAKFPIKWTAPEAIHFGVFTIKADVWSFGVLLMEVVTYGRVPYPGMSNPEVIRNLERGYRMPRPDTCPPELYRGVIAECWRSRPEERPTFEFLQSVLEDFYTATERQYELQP
T10 sequence (P42336 whole entry E545K): as the sequence (P42336 whole entry H1047R) above, with E545K, R1047H counted along it
T10 sequence (P27986 whole entry partner): as the sequence (P27986 whole entry partner) above
T2 sequence (Q15759 whole entry): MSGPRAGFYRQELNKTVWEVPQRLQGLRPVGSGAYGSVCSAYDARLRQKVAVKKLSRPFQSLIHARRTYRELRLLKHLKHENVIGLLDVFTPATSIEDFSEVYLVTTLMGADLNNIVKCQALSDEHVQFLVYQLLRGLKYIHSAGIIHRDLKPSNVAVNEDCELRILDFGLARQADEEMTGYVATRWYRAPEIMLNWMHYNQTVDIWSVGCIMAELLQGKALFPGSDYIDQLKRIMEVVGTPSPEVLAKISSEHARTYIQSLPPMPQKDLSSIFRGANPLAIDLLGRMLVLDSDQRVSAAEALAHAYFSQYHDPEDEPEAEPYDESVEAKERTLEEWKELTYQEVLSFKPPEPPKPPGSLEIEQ
T4 sequence (P42336 whole entry): as the sequence (P42336 whole entry H1047R) above, with R1047H counted along it
T4 sequence (P27986 whole entry partner): as the sequence (P27986 whole entry partner) above

With `CN(C)c1cc(-c2ccncc2)c(-c2cccc3ccccc23)nn1` [MW181, N,N-dimethyl-6-(naphthalen-1-yl)-5-(pyridin-4-yl)pyridazin-3-amine] the Ki (NLK) was 0.199 µM, the activity at 20 µM (SAPK2b (SAPK=p38MAPK)) was 6% and the pKa ([1]; read-out: pKa (UV method), first value) was 4.71 ± 0.03. For the same compound, the pKa ([1]; read-out: pKa (UV method), second value) was 3.19 ± 0.09 and the pKa ([1]; read-out: pKa (potentiometric method), second value) was less than 3.5.
In the case of `CN(C)c1cc(-c2ccncc2)c(-c2ccc3ccccc3c2)nn1` [MW108, N, N-dimethyl-6-(naphthalen-2-yl)-5-(pyridin-4-yl)pyridazin-3-amine], the activity at 20 µM (SAPK3 (SAPK=p38MAPK)) is reported as 87%, the activity at 20 µM (PI3 Kinase (p110α/p85α)) is reported as 98% and the activity at 20 µM (SAPK4 (SAPK=p38MAPK)) is reported as 93%. The activity at 20 µM (JNK2α2) was 76%, the “% Activity” value [2] was 99% and the “phosphorylation of the p38α substrate MK2” value [3] was “inhibited phosphorylation of the p38α substrate MK2 in a concentration-dependent manner”. For the same compound, the activity at 20 µM (Aurora-C) was 113%, the “Functional GPCR Agonist and Antagonist Screen” value (panel of 158 GPCRs) was “negative” and the activity at 20 µM [4] was 99%. The activity at 20 µM (Blk) was 88%, the “LPS-induced IL-1β production, WT microglia” value [5] was “inhibited LPS-induced IL-1β production” and the activity at 20 µM [6] was 99%. The “% Activity” value (MLCK) was 94%, the activity at 20 µM [7] was 98% and the activity at 20 µM (PI3 kinase (p110α/p65α)) was 99%. The activity at 20 µM (JNK1α1) was 96%.
